According to patent US9770446B2, “Piperidine urea derivatives” (MERCK PATENT GMBH, priority 2013, dated 2017):

What was measured:
[1] = tested on: Tankyrase; assay: Cellular inhibition of Tankyrase: Axin2 level in DLD1 cells (Luminex); format: cell-based; conditions: 24 hours, Axin2 increase, read-out: EC50 [M] TNKS cellular assay
Method: Measurement of Cellular Inhibition of Tankyrase
Since Tankyrases have been described to modulate cellular level of Axin2 (Huang et al., 2009; Nature) the increase of Axin2 level is used as read-out for determination of cellular inhibition of Tankyrases in a Luminex based assay.
Cells of the colon carcinoma cell line DLD1 are plated in 96 well plates with 1.5×10^4 cells per well. Next day, cells are treated with a serial dilution of test compound in seven steps as triplicates with a final DMSO concentration of 0.3%. After 24 hours, cells are lysed in lysis buffer (20 mM Tris/HCl pH 8.0, 150 mM NaCl, 1% NP40, 10% Glycerol) and lysates are cleared by centrifugation through a 96 well filter plate (0.65 μm). Axin2 protein is isolated from cell lysates by incubation with a monoclonal anti-Axin2 antibody (R&D Systems #MAB6078) that is bound to fluorescent carboxybeads. Then, bound Axin2 is specifically detected with a polyclonal anti-Axin2 antibody (Cell Signaling #2151) and an appropriate PE-fluorescent secondary antibody. The amount of isolated Axin2 protein is determined in a Luminex^200 machine (Luminex Corporation) according to the manufacturer's instruction by counting 100 events per well. Inhibition of Tankyrase by test compounds results in higher levels of Axin2 which directly correlates with an increase of detectable fluorescence. As controls cells are treated with solvent alone (neutral control) and with a Tankyrase reference inhibitor IWR-2 (3E-06 M) which refers as control for maximum increase of Axin2. For analysis, the obtained data are normalized against the untreated solvent control and fitted for determination of the EC50 values using the Assay Explorer software (Accelrys).

[2] = target: T1, His-tagged Parp-1 (Homo sapiens, UniProt P09874); assay: PARP-1 autoparsylation HTRF assay; format: biochemical
T1 construct: purchased Enzo Life Sciences GmbH, Lörrach, Germany
Source text: Description of the PARP1 Assay
Biochemical Activity Testing of PARP-1: Autoparsylation Assay
The autoparsylation assay is run in two steps: the enzymatic reaction in which His-tagged Parp-1 transfers biotinylated ADP-ribose/ADP-ribose to itself from biotinylated NAD/NAD as co-substrate and the detection reaction where a time resolved FRET between cryptate labelled anti-His antibody bound to the His tag of the enzyme and Xlent® labelled-streptavidin bound the biotin-parsylation residue is analysed. The autoparsylation activity is detectable directly via the increase in HTRF signal.
The autoparsylation assay is performed as 384-well HTRF® (Cisbio, Codolet, France) assay format in Greiner low volume nb 384-well microtiter plates. 35 nM His-tagged Parp-1 (human, recombinant, Enzo Life Sciences GmbH, Lörrach, Germany) and a mixture of 125 nM bio-NAD (Biolog, Life science Inst., Bremen, Germany) and 800 nM NAD as co-substrate are incubated in a total volume of 6 μl (100 mM Tris/HCl, 4 mM Mg-chloride, 0.01% IGEPAL® CA630, 1 mM DTT, 0.5% DMSO, pH 8, 13 ng/μl activated DNA (BPS Bioscience, San Diego, US)) in the absence or presence of the test compound (10 dilution concentrations) for 150 min at 23° C. The reaction is stopped by the addition of 4 μl of the Stop/detection solution (70 nM SA-Xlent® (Cisbio, Codolet, France), 2.5 nM Anti-His-K® (Eu-labelled anti-His, Cisbio, Codolet, France) in 50 mM HEPES, 400 mM KF, 0.1% BSA, 20 mM EDTA, pH 7.0). After 1 h incubation at room temperature the HTRF iss measured with an Envision multimode reader (Perkin Elmer LAS Germany GmbH) at excitation wavelength 340 nm (laser mode) and emission wavelengths 615 nm and 665 nm. The ratio of the emission signals is determined. The full value used is the inhibitor-free reaction. The pharmacological zero value used is Olaparib (LClabs, Woburn, US) in a final concentration of 1 μM. The inhibitory values (IC50) are determined using either the program Symyx Assay Explorer® or Condosseo® from GeneData.

[3] = target: T2, GST-tagged Tnks-2 (873-1166 aa) (Homo sapiens, UniProt Q9H2K2); assay: TNKS2 activity ELISA (autoparsylation assay); format: biochemical
T2 construct: GST-tagged Tnks-2 (873-1166 aa, prepared in-house); made in house
Method: (§1) Description of the TNKS1 and TNKS2 ELISA Assay
(§2) Biochemical Activity Testing of TNKS 1 and 2: Activity ELISA (Autoparsylation Assay)
(§3) For analysis of autoparsylation activity of TNKS 1 and 2 an activity ELISA iss performed: In the first step GST tagged TNKS is captured on a Glutathione coated plate. Then the activity assay with biotinylated NAD is performed in the absence/presence of the compounds. During the enzymatic reaction GST tagged TNKS transfers biotinylated ADP-ribose to itself from biotinylated NAD as co-substrate. For the detection streptavidin-HRP conjugate is added that binds to the biotinylated TNKS and is thereby captured to the plates. The amount of biotinylated resp. autoparsylated TNKS is detected with a luminescence substrate for HRP. The level of the luminescence signal correlates directly with the amount of autoparsylated TNKS and therefore with activity of TNKS.
(§4) The activity ELISA is performed in 384 well Glutathione coated microtiter plates (Express capture Glutathione coated plate, Biocat, Heidelberg, Germany). The plates are pre-equilibrated with PBS. Then the plates are incubated with 50 μl 20 ng/well GST-tagged Tnks-1 (1023-1327 aa, prepared in-house), respectively GST-tagged Tnks-2 (873-1166 aa, prepared in-house) in assay buffer (50 mM HEPES, 4 mM Mg-chloride, 0.05% Pluronic F-68, 2 mM DTT, pH 7.7) overnight at 4° C. The plates are washed 3 times with PBS-Tween-20. The wells are blocked by incubation at room temperature for 20 minutes with 50 μl blocking buffer (PBS, 0.05% Tween-20, 0.5% BSA). Afterwards the plates are washed 3 times with PBS-Tween-20. The enzymatic reaction is performed in 50 μl reaction solution (50 mM HEPES, 4 mM Mg-chloride, 0.05% Pluronic F-68, 1.4 mM DTT, 0.5% DMSO, pH 7.7) with 10 μM bio-NAD (Biolog, Life science Inst., Bremen, Germany) as co-substrate in the absence or presence of the test compound (10 dilution concentrations) for 1 hour at 30° C. The reaction is stopped by 3 times washing with PBS-Tween20. For the detection 50 μl of 20 ng/μl Streptavidin, HRP conjugate (MoBiTec, Göttingen, Germany) in PBS/0.05% Tween-20/0.01% BSA are added and the plates are incubated for 30 minutes at room temperature. After three times washing with PBS-Tween-20 50 μl of SuperSignal ELISA Femto Maximum sensitivity substrate solution (ThermoFisherScientific (Pierce), Bonn, Germany) are added. Following a 1 minute incubation at room temperature luminescence signals are measured with an Envision multimode reader (Perkin Elmer LAS Germany GmbH) at 700 nm. The full value used is the inhibitor-free reaction. The pharmacological zero value used is XAV-939 (Tocris) in a final concentration of 5 μM. The inhibitory values (IC50) are determined using either the program Symyx Assay Explorer® or Condosseo® from GeneData.

[4] = target: T3, GST-tagged Tnks-1 (1023-1327 aa) (Homo sapiens, UniProt O95271); assay: TNKS1 activity ELISA (autoparsylation assay); format: biochemical
T3 construct: GST-tagged Tnks-1 (1023-1327 aa, prepared in-house); made in house
Method: as §1, §2, §3, §4

[5] = tested on: DLD-1-cancer cells; conditions: cited from earlier work
[6] = tested on: ρ-catenin; conditions: by increasing the levels of the AXIN1 and AXIN2 proteins; cited from earlier work

T3 sequence (O95271 1023-1327): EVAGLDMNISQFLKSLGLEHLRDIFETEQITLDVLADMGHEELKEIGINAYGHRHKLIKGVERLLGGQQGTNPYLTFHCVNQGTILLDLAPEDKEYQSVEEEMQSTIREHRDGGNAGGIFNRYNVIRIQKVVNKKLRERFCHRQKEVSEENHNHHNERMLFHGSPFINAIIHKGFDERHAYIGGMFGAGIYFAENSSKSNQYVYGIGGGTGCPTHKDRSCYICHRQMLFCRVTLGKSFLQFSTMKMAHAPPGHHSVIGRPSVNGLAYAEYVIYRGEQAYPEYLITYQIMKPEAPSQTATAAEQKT
T1 sequence (P09874 whole entry): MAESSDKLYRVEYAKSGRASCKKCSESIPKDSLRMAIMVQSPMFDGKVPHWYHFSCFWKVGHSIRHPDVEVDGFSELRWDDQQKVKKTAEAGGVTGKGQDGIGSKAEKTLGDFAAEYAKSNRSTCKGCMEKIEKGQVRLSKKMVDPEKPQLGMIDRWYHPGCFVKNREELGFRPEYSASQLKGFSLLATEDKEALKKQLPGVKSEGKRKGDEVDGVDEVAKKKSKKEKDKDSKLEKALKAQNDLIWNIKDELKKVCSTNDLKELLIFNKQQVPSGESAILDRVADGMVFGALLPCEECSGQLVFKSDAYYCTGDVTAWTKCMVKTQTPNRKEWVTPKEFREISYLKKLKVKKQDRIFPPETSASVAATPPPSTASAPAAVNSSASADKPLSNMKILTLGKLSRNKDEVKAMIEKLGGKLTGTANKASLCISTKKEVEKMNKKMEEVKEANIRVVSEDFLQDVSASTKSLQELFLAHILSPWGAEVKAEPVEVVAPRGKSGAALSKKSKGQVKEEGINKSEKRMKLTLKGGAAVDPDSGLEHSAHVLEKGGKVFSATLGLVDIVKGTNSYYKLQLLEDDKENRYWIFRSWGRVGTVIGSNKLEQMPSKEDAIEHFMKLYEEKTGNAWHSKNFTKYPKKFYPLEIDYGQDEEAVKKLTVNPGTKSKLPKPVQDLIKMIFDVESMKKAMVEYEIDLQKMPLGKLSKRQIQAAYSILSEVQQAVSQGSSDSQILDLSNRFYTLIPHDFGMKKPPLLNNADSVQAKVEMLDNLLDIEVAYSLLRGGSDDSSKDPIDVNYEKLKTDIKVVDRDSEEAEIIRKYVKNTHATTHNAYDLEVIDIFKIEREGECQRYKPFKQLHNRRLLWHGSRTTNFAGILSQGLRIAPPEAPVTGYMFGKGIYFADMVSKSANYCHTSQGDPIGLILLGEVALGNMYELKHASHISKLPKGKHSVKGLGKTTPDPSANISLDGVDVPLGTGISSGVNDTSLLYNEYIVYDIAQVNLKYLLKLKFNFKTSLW
T2 sequence (Q9H2K2 873-1166): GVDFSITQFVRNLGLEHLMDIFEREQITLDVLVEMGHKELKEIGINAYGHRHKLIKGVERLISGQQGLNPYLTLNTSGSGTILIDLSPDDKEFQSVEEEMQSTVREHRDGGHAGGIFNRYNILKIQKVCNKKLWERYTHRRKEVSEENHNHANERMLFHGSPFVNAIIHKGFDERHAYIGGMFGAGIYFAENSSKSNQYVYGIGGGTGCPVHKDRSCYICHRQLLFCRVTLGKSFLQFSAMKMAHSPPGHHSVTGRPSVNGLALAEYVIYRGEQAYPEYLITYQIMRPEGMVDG

Row | SMILES | EC50 [1] [M] | IC50 [2] [µM] | IC50 [3] [µM] | IC50 [4] [µM] | growth of DLD-1-cancer cells [5] | Wnt-stimulated accumulation of ρ-catenin [6]
1 | COCCn1cc(-c2ccc(C(=O)C3CCN(C(=O)N(C)c4ccc(OC)cc4)CC3)cc2)cn1 [Compound A30, 4-{4-[1-(2-methoxy-ethyl)-1H-pyrazol-4-yl]-benzoyl}-piperidine-1-carboxylic acid (4-methoxy-phenyl)-methyl-amide] | < 3e-07 | 3 to 50 | < 0.3 | < 0.3 | – | –
2 | COCCn1cc(-c2ccc(N(C)C(=O)N3CCC(C(=O)c4ccc(OC)cc4)CC3)cc2)cn1 [Compound A31, 4-(4-methoxy-benzoyl)-piperidine-1-carboxylic acid {4-[1-(2-methoxy-ethyl)-1H-pyrazol-4-yl]-phenyl}-methyl-amide] | < 3e-07 | 3 to 50 | < 0.3 | < 0.3 | – | –
3 | COCCn1cc(-c2ccc(C(=O)C3CCN(C(=O)N(C)c4ccc(-c5cnn(CCOC)c5)cc4)CC3)cc2)cn1 [Compound A32, 4-{4-[1-(2-methoxy-ethyl)-1H-pyrazol-4-yl]-benzoyl}-piperidine-1-carboxylic acid {4-[1-(2-methoxy-ethyl)-1H-pyrazol-4-yl]-phenyl}-methyl-amide] | < 3e-07 | 3 to 50 | < 0.3 | < 0.3 | – | –
4 | CCn1cc(-c2ccc(C(=O)C3CCN(C(=O)N(C)c4ccc(OC)cc4)CC3)cc2)cn1 [Compound A33, 4-[4-(1-ethyl-1H-pyrazol-4-yl)-benzoyl]-piperidine-1-carboxylic acid (4-methoxy-phenyl)-methyl-amide] | < 3e-07 | 3 to 50 | < 0.3 | < 0.3 | – | –
5 | CCn1cc(-c2ccc(N(C)C(=O)N3CCC(C(=O)c4ccc(OC)cc4)CC3)cc2)cn1 [Compound A34, 4-(4-methoxy-benzoyl)-piperidine-1-carboxylic acid [4-(1-ethyl-1H-pyrazol-4-yl)-phenyl]-methyl-amide] | < 3e-07 | 3 to 50 | < 0.3 | < 0.3 | – | –
6 | COc1ccc(N(C)C(=O)N2CCC(C(=O)c3ccc(-c4cnn(CCN5CCCC5)c4)cc3)CC2)cc1 [Compound A35, 4-{4-[1-(2-pyrrolidin-1-yl-ethyl)-1H-pyrazol-4-yl]-benzoyl}-piperidine-1-carboxylic acid (4-methoxy-phenyl)-methyl-amide] | < 3e-07 | 3 to 50 | < 0.3 | < 0.3 | – | –
7 | COc1ccc(C(=O)C2CCN(C(=O)N(C)c3ccc(-c4cnn(CCN5CCCC5)c4)cc3)CC2)cc1 [Compound A36, 4-(4-methoxy-benzoyl)-piperidine-1-carboxylic acid methyl-{4-[1-(2-pyrrolidin-1-yl-ethyl)-1H-pyrazol-4-yl]-phenyl}-amide] | < 3e-07 | 3 to 50 | < 0.3 | < 0.3 | – | –
8 | CCOC(=O)CN(C(=O)N1CCC(C(=O)c2ccccc2)CC1)c1ccccc1 [Compound A39, [(4-benzoyl-piperidine-1-carbonyl)-phenyl-amino]-acetic acid ethyl ester] | 3e-07 to 3e-06 | 3 to 50 | < 0.3 | < 0.3 | – | –
9 | Oc1nc(-c2ccc(C(F)(F)F)cc2)nc2c1CSCC2 [XAV939] | – | – | – | – | inhibits growth | blocked
